Laboratory results as given in patent publication US9458463B2, “Method for treatment of diabetes by a small molecule inhibitor for GRK5” (MAX-PLANCK-GESELLSCHAFT ZUR FÖRDERUNG DER WISSENSCHAFTEN …, priority 2010, dated 2016).
pIC50: −log10 of the molar value.

How the values were obtained:
[1] = target: T1, full length GRK5 (Homo sapiens, UniProt P34947); test: GRK5 kinase activity assay, ADP Glo Kinase Assay technology (Promega); assay type: biochemical; settings: group II; ADP Glo Kinase Assay (Table 9-B)
T1 construct: 6/2 fold concentrated full length GRK5 (Millipore, #14-714) in reaction buffer; purchased Millipore 14-714
T1 sequence (P34947 whole entry): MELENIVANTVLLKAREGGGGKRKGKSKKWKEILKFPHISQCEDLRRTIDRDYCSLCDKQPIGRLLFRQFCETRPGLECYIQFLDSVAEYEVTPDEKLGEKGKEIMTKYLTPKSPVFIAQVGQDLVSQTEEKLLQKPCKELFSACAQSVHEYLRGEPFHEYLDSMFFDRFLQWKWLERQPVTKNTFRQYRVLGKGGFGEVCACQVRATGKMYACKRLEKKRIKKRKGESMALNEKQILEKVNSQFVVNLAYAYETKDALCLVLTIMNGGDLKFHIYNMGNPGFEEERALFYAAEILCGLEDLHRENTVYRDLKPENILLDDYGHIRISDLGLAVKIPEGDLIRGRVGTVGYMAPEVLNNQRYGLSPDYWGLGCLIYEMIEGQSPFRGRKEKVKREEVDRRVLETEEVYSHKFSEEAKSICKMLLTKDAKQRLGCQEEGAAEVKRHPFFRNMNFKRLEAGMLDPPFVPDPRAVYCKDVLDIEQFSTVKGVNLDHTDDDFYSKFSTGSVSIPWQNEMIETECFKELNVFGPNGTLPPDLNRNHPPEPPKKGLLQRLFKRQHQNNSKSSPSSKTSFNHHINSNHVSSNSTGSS
Experimental: The maximal compound assay concentration was set to 100 μM, representing the compound assay concentration used in the primary screen.
Increasing concentrations of GRK5 are incubated together with 100 μM ATP in the absence and presence of 10 μM casein in a reaction buffer. Within this incubation non-phosphorylated casein is converted into phosphorylated casein and ATP is converted into ADP. Thereafter nonconverted ATP is digested into AMP by addition of the ADP-Glo™ Reagent. Subsequently the ADP that is produced by GRK5 activity is phosphorylated back to ATP by addition of Promega Kinase Detection Reagent. These ATP levels serve as measure for the GRK5 activity and are quantified by a luciferase/luciferin reaction.
For GRK5 kinase activity assay, the following protocol was used:
The reaction buffer used was composed of: 20 mM MES pH 6.0, 1 mM DTT, 10 mM MgCl2, 0.01% Tween20 and the reaction volume was 6 μL.
Firstly 4 μL 6/4 fold concentrated substrate and 6/4 fold concentrated ATP in 1 fold concentrated reaction buffer are added to each well of the assay plate. Subsequently 67 nL […] concentrated test compound in 100% DMSO are added to each well except to C− and C+ wells using pin tool. Then 67 nL 100% DMSO are pipetted to C− (no kinase, no compound) and C+ (no compound) wells using pin-tool and 2 μL reaction buffer are added to C− wells. […] After incubation for 120 min. at room temperature 6 μL ADP-Glo™ Reagent (ADP Glo™ Kinase Assay Kit: Promega, V9101) are added to each well to stop the kinase reaction and deplete the unconsumed ATP. After a second incubation for 40 min. at room temperature 12 μL of Kinase Detection Reagent are added to convert ADP to ATP and start luciferase/luciferin reaction for detection of ATP. […] Finally, after incubation for 40 min at room temperature the luminescence intensity was measured.
The activity of the compounds was classified according to IC50 for binding sites of Grk5 into the following ranges:
8800 Customer compounds were screened for their ability to inhibit the enzymatic activity of GRK5. Screening was performed using the ADP Glo™ Kinase Assay technology (Promega). The small molecular weight compounds were delivered at 10 mM stock concentration and were tested at a final assay concentration of 100 μM.
IC50 values were determined in triplicates at 12 concentrations with a dilution factor of three. Triplicates were measured on three different assay plates. The maximal compound assay concentration was set to 100 μM representing the compound assay concentration used in the primary screen. A larger maximal compound assay concentration could not be achieved since the maximal compound concentration on the compound plates was 10 mM (>1% DMSO concentration in the assay).

[2] = test system: beta-TC6 insulinoma cells; test: Insulin release by beta-TC6 cells, rat/mouse insulin ELISA, high glucose; assay type: cell-based; settings: for activation at 5 µM: Mus musculus, group II, 2 h, high glucose (4.5 g/L), % increase in regard to DMSO control (set at 0%); for activation at 5 µM / Insulin release by beta-TC6 cells compared with positive control Sunitinib: 5 μM; for Insulin release by beta-TC6 cells compared with positive control Sunitinib: high glucose
Experimental: (§1) Release of insulin was detected using a rat/mouse insulin ELISA.
After incubation, the supernatant of the beta-TC6 insulinoma cells was diluted 1:20. The insulin release was measured with rat/mouse insulin ELISA (Merck Millipore Darmstadt, Cat. # EZRMI-13K) by following the manufacture protocol. The enzyme activity of the horseradish peroxidase of the immobilized biotinylated antibodies was monitored spectrophotometrically by the increased absorbency at 490 nm, and corrected by the absorbency at 610 nm.
as §1
The effect on the insulin release of each kinase depletion was monitored by using a rat/mouse insulin ELISA.
For the validation of the negative modulating kinases SCYL1, GRK5, and ADCK1, the target genes were depleted using four different siRNA-sequences each (FIG. 2A-D). The gene-depletion was measured via mRNA-levels after 72 hours while the insulin release was measured using a rat/mouse insulin ELISA after two hours incubation.

[3] = test system: 3T3-L1 cells; test: Cell viability assay (CellTiter-Glo / automated cell number) in 3T3-L1; assay type: cell-based; settings: Mus musculus, read-out: Inhibition of cell viability IC50
Text: (§2) Luminescent cell viability assay. For the detection of cell viability, the CellTiter-Glo® Luminescent Cell Viability Assay was used. This test is based on a luciferase reaction to measure the amount of ATP in cells. This correlates directly with the number of cells and their viability because cells lose the ability to synthesize ATP directly after e.g. loss of membrane integrity or a cytotoxic event. The protocol was adapted to 24 well plates and to the different culture conditions resulting in a standardized protocol which is described below. Cell lysis, inhibition of endogenous ATPases and detection of ATP was performed by adding the CellTiter-Glo® Reagent to the culture wells. Per well, 100 μl reagent were mixed with the same volume of proper Medium. Lysing of the cells took place by 10 min incubation at RT and moderate shaking. Three times 50 μl cell lysate was transferred into a white 96 well plate to eliminate stray light, and the bioluminescence was measured.
(§3) In a 96 well dish 10000 cells per well (100 μl) were seed and treated for 72 h. At the end of the treatment, cells were fixed with 4% paraformaldehyde in PBS for 15 minutes, permeabilized with 0.1% triton-X 100 in PBS for 15 minutes and stained with Hoechst 33342 (20 μg/ml in PBS; dilute from 20 mg/ml stock) directly to cells in 100 μl medium in PBS for 30 minutes at 37° C. Stained cells were imaged with a Cellomics ArrayScan VT I automated microscope. Images were analyzed with vHCS Scan Target Activation software v5.1.2 to identify apoptotic cells. Six fields per well of a 96 well plate we re-imaged at 10× magnification. First, cells were identified by their nuclei staining in channel 1 of Cellomics and their amount. Staining intensity was plotted and compared between NT controls and compound treated cells. Finally, data was obtained using vHCS View software v 5.1.2 and the numbers of cells present in the 96 well were identified as “Valid Object Count” whereas the percentage of infection was determined as “% selected”. IC50 values have been calculated accordingly.

[4] = test system: beta TC6 cells; test: Cell viability assay (CellTiter-Glo / automated cell number) in beta TC6; assay type: cell-based; settings: Mus musculus, read-out: Inhibition of cell viability IC50
Text: as §2, §3

[5] = test system: C2C12 cells; test: Cell viability assay (CellTiter-Glo / automated cell number) in C2C12; assay type: cell-based; settings: Mus musculus, read-out: Inhibition of cell viability IC50
Text: as §2, §3

[6] = test system: HepG2 cells; test: Cell viability assay (CellTiter-Glo / automated cell number) in HepG2; assay type: cell-based; settings: Homo sapiens, read-out: Inhibition of cell viability IC50
Text: as §2, §3

Row | Structure (SMILES) | pIC50 [1] | pIC50 [6] | activation at 5 µM ([2]; Beta-TC6, 2 h) [%] | pIC50 [3] | pIC50 [4] | pIC50 [5] | activation at 5 µM ([2]; Beta-TC6) [%] | Increase in insulin release ([2]; positive control of the siRNA validation, Sunitinib 5 μM, beta-TC6) [%] | Insulin release by beta-TC6 cells compared with positive control Sunitinib [2]
1 | Cc1cccc(C(C)NC(=O)c2ccc3c(c2)/C(=C/c2[nH]c(C)c(C(=O)N4CCN(C)CC4)c2C)C(=O)N3)c1 (centres unmarked) [II.51, (3Z)-3-({3,5-dimethyl-4-[(4-methylpiperazin-1-yl)carbonyl]-1H-pyrrol-2-yl}methylene)-N-[1-(3-methylphenyl)ethyl]-2-oxoindoline-5-carboxamide] | 5.00 to 5.70 | 5.95 | 252 | 5.87 | 5.71 | 5.48 | – | – | –
2 | CCN(CC)CCNC(=O)c1c(C)[nH]c(/C=C2\C(=O)Nc3ccc(F)cc32)c1C [Sunitinib, reference compound] | – | – | – | – | – | – | 80 | 76.52±13 | –
3 | Cc1ccc([C@@H](C)NC(=O)c2ccc3c(c2)/C(=C/c2[nH]c(C)c(C(=O)N4CCN(C)CC4)c2C)C(=O)N3)cc1 [II.32, (3Z)-3-({3,5-dimethyl-4-[(4-methylpiperazin-1-yl)carbonyl]-1H-pyrrol-2-yl}methylene)-N-[(1R)-1-(4-methylphenyl)ethyl]-2-oxoindoline-5-carboxamide] | 5.70 to 6.00 | 5.91 | 143 | 6.15 | 5.80 | 5.37 | – | – | –
4 | NC(=O)c1ccc(Nc2cc3[nH]c(-c4cccc(F)c4)cc3cn2)cc1 [compound 6, 4-[[2-(3-fluorophenyl)-1H-pyrrolo[3,2-c]pyridin-6-yl]amino]benzamide] | – | – | – | – | – | – | – | – | level similar to Sunitinib
5 | CCC(NC(=O)c1ccc2c(c1)/C(=C/c1[nH]c(C)c(C(=O)NCCN3CCCC3)c1C)C(=O)N2)c1cccc(Cl)c1 (centres unmarked) [II.11, (3Z)-N-[1-(3-chlorophenyl)propyl]-3-({3,5-dimethyl-4-[(2-pyrrolidin-1-ylethyl)carbamoyl]-1H-pyrrol-2-yl}methylene)-2-oxoindoline-5-carboxamide] | 6.00 to 7.00 | 6.10 | 96 | < 5.00 | 6.02 | 5.47 | – | – | –
6 | CC[C@@H](NC(=O)c1ccc2c(c1)/C(=C/c1[nH]c(C)c(CCC(=O)O)c1C)C(=O)N2)c1ccccc1 [II.130, (3Z)-3-{2,4-dimethyl-5-[2-oxo-5-(1R)-(1-phenyl-propylcarbamoyl)-1,2-dihydro-indol-3-ylidenemethyl]-1H-pyrrol-3-yl}-propionic acid] | 6.00 to 7.00 | 5.80 | 103 | < 5.00 | 5.07 | < 5.00 | – | – | –
7 | Cn1c(-c2cccnc2)cc2c(Nc3cccc(C(F)(F)F)c3)nccc21 [compound 243, 1-methyl-2-(3-pyridyl)-N-[3-(trifluoromethyl)phenyl]pyrrolo[3,2-c]pyridin-4-amine] | – | – | – | – | – | – | – | – | better effect on the insulin release by beta-TC6 cells than the positive control Sunitinib
8 | CCC(NC(=O)c1ccc2c(c1)/C(=C/c1[nH]c(C)c(CCC(=O)O)c1C)C(=O)N2)c1ccc(Cl)cc1 (centres unmarked) [II.132, (3Z)-3-(5-{5-[1-(4-chloro-phenyl)-propylcarbamoyl]-2-oxo-1,2-dihydro-indol-3-ylidenemethyl}-2,4-dimethyl-1H-pyrrol-3-yl)-propionic acid] | 6.00 to 7.00 | – | 117 | – | – | – | – | – | –
9 | CCC(NC(=O)c1ccc2c(c1)/C(=C/c1[nH]c(C)c(CCC(=O)O)c1C)C(=O)N2)c1ccc(F)c(F)c1 (centres unmarked) [II.133, (3Z)-3-(5-{5-[1-(3,4-difluoro-phenyl)-propylcarbamoyl]-2-oxo-1,2-dihydro-indol-3-ylidenemethyl}-2,4-dimethyl-1H-pyrrol-3-yl)-propionic acid] | 6.00 to 7.00 | – | 131 | – | – | – | – | – | –

Now from value to molecule, other results behind:

Row | pIC50 [1] | pIC50 [6] | Structure (SMILES) | activation at 5 µM ([2]; Beta-TC6, 2 h) [%] | pIC50 [3] | pIC50 [4] | pIC50 [5] | activation at 5 µM ([2]; Beta-TC6) [%] | Increase in insulin release ([2]; positive control of the siRNA validation, Sunitinib 5 μM, beta-TC6) [%] | Insulin release by beta-TC6 cells compared with positive control Sunitinib [2]
10 | 6.00 to 7.00 | 5.83 | CC[C@@H](NC(=O)c1ccc2c(c1)/C(=C/c1[nH]c(C)c(CCC(=O)NCCN(CC)CC)c1C)C(=O)N2)c1ccccc1 [II.131, (3Z)-3-{4-[2-(2-diethylamino-ethylcarbamoyl)-ethyl]-3,5-dimethyl-1H-pyrrol-2-ylmethylene}-2-oxo-2,3-dihydro-1H-indole-5-carboxylic acid (1-phenyl-propyl)-amide] | 134 | < 5.00 | 5.46 | < 5.00 | – | – | –
11 | 6.00 to 7.00 | 5.83 | Cc1[nH]c(/C=C2\C(=O)Nc3ccc(C(=O)N[C@H](C)c4ccc(Cl)cc4)cc32)c(C)c1C(=O)N1CCCC1 [II.67, (3Z)-N-[(1R)-1-(4-chlorophenyl)ethyl]-3-{[3,5-dimethyl-4-(pyrrolidin-1-ylcarbonyl)-1H-pyrrol-2-yl]methylene}-2-oxoindoline-5-carboxamide] | 159 | 5.82 | 5.71 | 5.40 | – | – | –
12 | > 7.00 | 5.24 | C[C@@H](NC(=O)c1ccc2c(c1)/C(=C/Nc1ccc(CN3CCCCC3)cc1)C(=O)N2)c1ccccc1 [II.78, (3Z)-2-oxo-N-[(1R)-1-phenylethyl]-3-({[4-(piperidin-1-ylmethyl)phenyl]amino}methylene)indoline-5-carboxamide] | – | < 5.00 | < 5.00 | < 5.00 | – | – | –
13 | > 7.00 | 5.41 | C[C@@H](NC(=O)c1ccc2c(c1)/C(=C/Nc1ccc(CN3CCCCC3)cc1)C(=O)N2)c1cccc(Cl)c1 [II.80, (3Z)-N-[(1R)-1-(3-chlorophenyl)ethyl]-2-oxo-3-({[4-(piperidin-1-ylmethyl)phenyl]amino}methylene)indoline-5-carboxamide] | – | < 5.00 | 6.33 | < 5.00 | – | – | –
14 | > 7.00 | 5.68 | COc1cccc([C@@H](C)NC(=O)c2ccc3c(c2)/C(=C/Nc2ccc(CN4CCCCC4)cc2)C(=O)N3)c1 [II.79, (3Z)-N-[(1R)-1-(3-methoxyphenyl)ethyl]-2-oxo-3-({[4-(piperidin-1-ylmethyl)phenyl]amino}methylene)indoline-5-carboxamide] | – | < 5.00 | 5.69 | < 5.00 | – | – | –
